Assay [1] deals with T1, PI3K (Homo sapiens, UniProt P48736).
T1 construct: PI3 Kinase γ IC50; other: PI3 Kinase γ; other: PI3 Kinase γ isoform, fluorescence polarization
Briefly: Fluorescence polarization assay for PI3K. Format: biochemical. Conditions: PI3 Kinase γ; read-out: PI3 Kinase γ IC50. The essentials: (§1)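 PI3K was preincubated with compound (final DMSO 1%), and the reaction was started with PIP2/ATP substrate and run 30–60 min. It was stopped with a detector mix giving 10 nM red probe and 70 nM GST-GRP.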

Assay [2] deals with T2, PI3K (Homo sapiens, UniProt P42336).
T2 construct: PI3 Kinase α IC50; other: PI3 Kinase α; other: PI3 Kinase α isoform, fluorescence polarization
Briefly: Fluorescence polarization assay for PI3K. The format is biochemical. Conditions: PI3 Kinase α; read-out: PI3 Kinase α IC50. The essentials: as §1

Assay [3] deals with breast line MDA468. Briefly: In vitro cell culture growth assay (MTS), MDA468. The format is cell-based. Conditions: Homo sapiens, 72 h, MDA468 cells, three days after drug treatment. The method in brief: (§2)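 Plate cells; add inhibitors on day 1; after 3 days' treatment, add MTS; read A490; express as percent growth of vehicle-treated control.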
Assay [4] concerns prostate line LNCap. Briefly: In vitro cell culture growth assay (MTS), LNCap. The following applies: Homo sapiens, LNCaP, 72 h, LNCap cells, three days after drug treatment. Format: cell-based. The method in brief:
as §2

Assay [5] deals with T3, Human mTOR (FLAG-TOR) (Homo sapiens, UniProt P42345).
T3 construct: FLAG
Briefly: Human mTOR kinase assay with purified enzyme, DELFIA format. The format is biochemical. The method in brief:
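Purified FLAG-mTOR in HEPES pH 7.4 buffer with 10 mM MnCl2 was preincubated with inhibitor and reacted 2 h at room temperature with His6-S6K substrate, then stopped with EDTA/EGTA. Phospho-T389 S6K detected by DELFIA with Eu-labelled antibody (40 ng/mL) after plate capture; inhibition computed from signal.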

T2 sequence (P42336 whole entry, canonical isoform): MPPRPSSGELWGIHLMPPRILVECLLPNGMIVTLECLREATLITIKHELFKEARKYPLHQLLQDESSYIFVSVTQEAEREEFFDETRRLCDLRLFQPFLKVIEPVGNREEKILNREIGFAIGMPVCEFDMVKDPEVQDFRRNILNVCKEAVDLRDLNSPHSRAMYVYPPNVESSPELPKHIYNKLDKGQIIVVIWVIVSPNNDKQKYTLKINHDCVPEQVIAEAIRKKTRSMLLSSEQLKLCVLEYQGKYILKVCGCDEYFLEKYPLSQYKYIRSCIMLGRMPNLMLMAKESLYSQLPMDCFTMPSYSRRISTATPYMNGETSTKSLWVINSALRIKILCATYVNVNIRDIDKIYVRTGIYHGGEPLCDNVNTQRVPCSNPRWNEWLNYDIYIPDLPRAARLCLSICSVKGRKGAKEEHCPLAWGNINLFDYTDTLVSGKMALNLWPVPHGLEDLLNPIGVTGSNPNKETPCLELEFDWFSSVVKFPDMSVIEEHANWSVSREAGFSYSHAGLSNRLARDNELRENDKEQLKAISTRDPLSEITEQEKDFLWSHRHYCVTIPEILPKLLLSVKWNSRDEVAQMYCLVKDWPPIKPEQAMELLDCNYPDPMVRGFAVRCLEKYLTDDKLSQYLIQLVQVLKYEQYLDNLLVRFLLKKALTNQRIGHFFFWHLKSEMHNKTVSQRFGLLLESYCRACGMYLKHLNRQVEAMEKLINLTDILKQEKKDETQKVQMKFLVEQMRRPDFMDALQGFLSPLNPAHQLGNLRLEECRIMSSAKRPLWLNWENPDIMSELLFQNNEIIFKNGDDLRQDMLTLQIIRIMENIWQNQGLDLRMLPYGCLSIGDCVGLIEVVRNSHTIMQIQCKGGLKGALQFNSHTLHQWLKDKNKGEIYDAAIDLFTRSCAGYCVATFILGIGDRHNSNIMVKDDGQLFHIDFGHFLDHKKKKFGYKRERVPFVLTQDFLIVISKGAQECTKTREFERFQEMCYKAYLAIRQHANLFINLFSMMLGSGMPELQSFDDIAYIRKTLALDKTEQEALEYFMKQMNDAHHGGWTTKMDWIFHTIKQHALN
T1 sequence (P48736 whole entry, canonical isoform): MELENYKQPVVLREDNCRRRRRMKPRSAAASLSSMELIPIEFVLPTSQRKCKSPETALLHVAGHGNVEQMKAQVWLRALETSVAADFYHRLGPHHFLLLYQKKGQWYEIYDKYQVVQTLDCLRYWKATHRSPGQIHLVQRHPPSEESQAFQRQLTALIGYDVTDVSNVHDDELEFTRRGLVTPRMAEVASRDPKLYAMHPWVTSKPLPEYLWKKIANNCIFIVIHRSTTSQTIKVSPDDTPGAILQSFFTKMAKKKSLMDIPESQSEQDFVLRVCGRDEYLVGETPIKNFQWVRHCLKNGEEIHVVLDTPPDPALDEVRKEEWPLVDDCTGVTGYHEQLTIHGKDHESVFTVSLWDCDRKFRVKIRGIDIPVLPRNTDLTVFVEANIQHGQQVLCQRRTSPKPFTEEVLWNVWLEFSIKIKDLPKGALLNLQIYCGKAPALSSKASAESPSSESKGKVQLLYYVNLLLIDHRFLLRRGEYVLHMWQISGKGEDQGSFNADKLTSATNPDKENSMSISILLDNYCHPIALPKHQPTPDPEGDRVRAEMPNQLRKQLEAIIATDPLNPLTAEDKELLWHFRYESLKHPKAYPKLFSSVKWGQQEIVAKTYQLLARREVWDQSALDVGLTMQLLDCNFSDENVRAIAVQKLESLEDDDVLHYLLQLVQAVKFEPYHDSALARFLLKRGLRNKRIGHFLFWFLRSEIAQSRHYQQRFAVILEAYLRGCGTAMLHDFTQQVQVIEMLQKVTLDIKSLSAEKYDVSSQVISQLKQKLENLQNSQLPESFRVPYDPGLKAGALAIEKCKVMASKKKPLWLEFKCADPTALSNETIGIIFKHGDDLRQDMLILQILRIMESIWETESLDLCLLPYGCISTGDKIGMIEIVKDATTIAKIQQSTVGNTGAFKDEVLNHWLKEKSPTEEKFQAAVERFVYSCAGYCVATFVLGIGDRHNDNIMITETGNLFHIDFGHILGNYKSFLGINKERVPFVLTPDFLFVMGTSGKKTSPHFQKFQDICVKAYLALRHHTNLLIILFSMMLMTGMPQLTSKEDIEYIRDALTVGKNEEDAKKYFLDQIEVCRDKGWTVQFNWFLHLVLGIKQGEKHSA

In the case of `CN1CCN(c2ccc(NC(=O)Nc3ccc(-c4nc(N5CC6CCC(C5)O6)c5cnn(CCC#N)c5n4)cc3)cn2)CC1` [Example 222, 1-{4-[1-(2-cyanoethyl)-4-(8-oxa-3-azabicyclo[3.2.1]oct-3-yl)-1H-pyrazolo[3,4-d]pyrimidin-6-yl]phenyl}-3-[6-(4-methylpiperazin-1-yl)pyridin-3-yl]urea], the IC50 was 2610 nM in assay [1]; 143 nM in assay [2]; 8 nM in assay [3]; 1 nM in assay [4]; 0.405 nM in assay [5].

For `N#CCCn1ncc2c(N3CC4CCC(C3)O4)nc(-c3ccc(NC(=O)Nc4ccc(N5CCOCC5)nc4)cc3)nc21` [Example 223, 1-{4-[1-(2-cyanoethyl)-4-(8-oxa-3-azabicyclo[3.2.1]oct-3-yl)-1H-pyrazolo[3,4-d]pyrimidin-6-yl]phenyl}-3-(6-morpholin-4-ylpyridin-3-yl)urea], the IC50 was over 10000 nM in assay [1]; 1660 nM in assay [2]; 21 nM in assay [3]; 10 nM in assay [4]; 0.265 nM in assay [5].

On to `CN(C)CCOc1ccc(NC(=O)Nc2ccc(-c3nc(N4CC5CCC(C4)O5)c4cnn(CCC#N)c4n3)cc2)cc1` [Example 224, 1-{4-[1-(2-cyanoethyl)-4-(8-oxa-3-azabicyclo[3.2.1]oct-3-yl)-1H-pyrazolo[3,4-d]pyrimidin-6-yl]phenyl}-3-{4-[2-(dimethylamino)ethoxy]phenyl}urea], for which the IC50 in assay [1] was 2600 nM; in assay [2] it was 155 nM; in assay [3], 12 nM; in assay [4], 3 nM; in assay [5], 0.745 nM.

`CCn1ncc2c(N3CC4CCC(C3)O4)nc(-c3ccc(NC(=O)NCCOCCN)cc3)nc21` [Example 225, 1-[2-(2-aminoethoxy)ethyl]-3-{4-[1-ethyl-4-(8-oxa-3-azabicyclo[3.2.1]oct-3-yl)-1H-pyrazolo[3,4-d]pyrimidin-6-yl]phenyl}urea]: the IC50 in assay [1] was over 10000 nM; in assay [2], 1390 nM; in assay [3], 4000 nM; in assay [4], 2400 nM; in assay [5] it was 26.5 nM.

On to `CCn1ncc2c(N3CC4CCC(C3)O4)nc(-c3ccc(NC(=O)NCC4CCN(C)CC4)cc3)nc21` [Example 226, 1-{4-[1-ethyl-4-(8-oxa-3-azabicyclo[3.2.1]oct-3-yl)-1H-pyrazolo[3,4-d]pyrimidin-6-yl]phenyl}-3-[(1-methylpiperidin-4-yl)methyl]urea], for which the IC50 in assay [1] is over 10000 nM; in assay [2], 4150 nM; in assay [3], 1300 nM; in assay [4], 700 nM; in assay [5], 230 nM.

For the compound `CCn1ncc2c(N3CC4CCC(C3)O4)nc(-c3ccc(NC(=O)NC4CCCCC4)cc3)nc21` [Example 227, 1-cyclohexyl-3-{4-[1-ethyl-4-(8-oxa-3-azabicyclo[3.2.1]oct-3-yl)-1H-pyrazolo[3,4-d]pyrimidin-6-yl]phenyl}urea], the IC50 in assay [1] was over 10000 nM; in assay [2], 5940 nM; in assay [3], 3200 nM; in assay [4], 1200 nM; in assay [5], 15 nM.

Consider `CCn1ncc2c(N3CC4CCC(C3)O4)nc(-c3ccc(NC(=O)NC4CCN(C)CC4)cc3)nc21` [Example 228, 1-{4-[1-ethyl-4-(8-oxa-3-azabicyclo[3.2.1]oct-3-yl)-1H-pyrazolo[3,4-d]pyrimidin-6-yl]phenyl}-3-(1-methylpiperidin-4-yl)urea], for which the IC50 in assay [1] is over 10000 nM; in assay [2], 4500 nM; in assay [3] it was 900 nM; in assay [4], 490 nM; in assay [5], 31.5 nM.

Consider `Cn1ncc2c(N3CC4CCC(C3)O4)nc(-c3ccc(NC(=O)Nc4ccc(CO)cc4)cc3)nc21` [Example 231, 1-[4-(hydroxymethyl)phenyl]-3-{4-[1-methyl-4-(8-oxa-3-azabicyclo[3.2.1]oct-3-yl)-1H-pyrazolo[3,4-d]pyrimidin-6-yl]phenyl}urea], for which the IC50 in assay [1] is 468 nM; in assay [2] it was 47 nM; in assay [3], under 1 nM; in assay [4] it was under 1 nM; in assay [5] it was 0.13 nM.

For `Cn1ncc2c(N3CC4CCC(C3)O4)nc(-c3ccc(NC(=O)Nc4ccc(CCO)cc4)cc3)nc21` [Example 232, 1-[4-(2-hydroxyethyl)phenyl]-3-{4-[1-methyl-4-(8-oxa-3-azabicyclo[3.2.1]oct-3-yl)-1H-pyrazolo[3,4-d]pyrimidin-6-yl]phenyl}urea], the IC50 in assay [1] was 524 nM; in assay [2], 60 nM; in assay [3], 2 nM; in assay [4], under 1 nM; in assay [5], 0.105 nM.

Take `CN(C)c1ccc(NC(=O)Nc2ccc(-c3nc(N4CC5CCC(C4)O5)c4cnn(C)c4n3)cc2)cc1` [Example 233, 1-[4-(dimethylamino)phenyl]-3-{4-[1-methyl-4-(8-oxa-3-azabicyclo[3.2.1]oct-3-yl)-1H-pyrazolo[3,4-d]pyrimidin-6-yl]phenyl}urea]: the IC50 was over 10000 nM in assay [1]; 604 nM in assay [2]; 140 nM in assay [3]; 40 nM in assay [4]; 0.865 nM in assay [5].

Take `Cn1ncc2c(N3CC4CCC(C3)O4)nc(-c3ccc(NC(=O)Nc4ccc(N)cc4)cc3)nc21` [Example 234, 1-(4-aminophenyl)-3-{4-[1-methyl-4-(8-oxa-3-azabicyclo[3.2.1]oct-3-yl)-1H-pyrazolo[3,4-d]pyrimidin-6-yl]phenyl}urea]: the IC50 in assay [1] came to 1100 nM; in assay [2], 162 nM; in assay [3], 11 nM; in assay [4], 2 nM; in assay [5], 0.355 nM.

As to `CN1CCN(c2ccc(NC(=O)Nc3ccc(-c4nc(N5CC6CCC(C5)O6)c5cnn(C)c5n4)cc3)cn2)CC1` [Example 235, 1-{4-[1-methyl-4-(8-oxa-3-azabicyclo[3.2.1]oct-3-yl)-1H-pyrazolo[3,4-d]pyrimidin-6-yl]phenyl}-3-[6-(4-methylpiperazin-1-yl)pyridin-3-yl]urea], the IC50 in assay [1] was found to be 1060 nM; in assay [2] it was 187 nM; in assay [3], 68 nM; in assay [4], 3 nM; in assay [5] it was 0.625 nM.

For `CN1CCN(c2ccc(NC(=O)Nc3ccc(-c4nc(N5CC6CCC(C5)O6)c5cnn(C)c5n4)cc3)cc2)CC1` [Example 236, 1-{4-[1-methyl-4-(8-oxa-3-azabicyclo[3.2.1]oct-3-yl)-1H-pyrazolo[3,4-d]pyrimidin-6-yl]phenyl}-3-[4-(4-methylpiperazin-1-yl)phenyl]urea], the IC50 in assay [1] stood at 260 nM; in assay [2], 70 nM; in assay [3] it was 43 nM; in assay [4], 4 nM; in assay [5], 0.445 nM.

For the compound `Cn1ncc2c(N3CC4CCC(C3)O4)nc(-c3ccc(NC(=O)Nc4ccc(N5CCOCC5)nc4)cc3)nc21` [Example 237, 1-{4-[1-methyl-4-(8-oxa-3-azabicyclo[3.2.1]oct-3-yl)-1H-pyrazolo[3,4-d]pyrimidin-6-yl]phenyl}-3-(6-morpholin-4-ylpyridin-3-yl)urea], the IC50 in assay [1] was over 10000 nM; in assay [2], 1350 nM; in assay [3] it was 52 nM; in assay [4] it was 7 nM; in assay [5] it was 0.37 nM.

On to `Cn1ncc2c(N3CC4CCC(C3)O4)nc(-c3ccc(NC(=O)Nc4ccc(N5CCOCC5)cc4)cc3)nc21` [Example 238, 1-{4-[1-methyl-4-(8-oxa-3-azabicyclo[3.2.1]oct-3-yl)-1H-pyrazolo[3,4-d]pyrimidin-6-yl]phenyl}-3-(4-morpholin-4-ylphenyl)urea], for which the IC50 in assay [1] was over 10000 nM; in assay [2], 371 nM; in assay [3] it was 8 nM; in assay [4], 1 nM; in assay [5], 0.245 nM.

`Cn1ncc2c(N3CC4CCC(C3)O4)nc(-c3ccc(NC(=O)Nc4ccc(S(C)(=O)=O)cc4)cc3)nc21` [Example 239, 1-{4-[1-methyl-4-(8-oxa-3-azabicyclo[3.2.1]oct-3-yl)-1H-pyrazolo[3,4-d]pyrimidin-6-yl]phenyl}-3-[4-(methylsulfonyl)phenyl]urea]: the IC50 in assay [1] was found to be 440 nM; in assay [2], 64 nM; in assay [3], 4 nM; in assay [4], 1 nM; in assay [5], 0.108 nM.

For the compound `Cn1ncc2c(N3CC4CCC(C3)O4)nc(-c3ccc(NC(=O)Nc4ccc(S(=O)(=O)CCN5CCCCC5)cc4)cc3)nc21` [Example 240, 1-{4-[1-methyl-4-(8-oxa-3-azabicyclo[3.2.1]oct-3-yl)-1H-pyrazolo[3,4-d]pyrimidin-6-yl]phenyl}-3-{4-[(2-piperidin-1-ylethyl)sulfonyl]phenyl}urea], the IC50 in assay [1] amounted to 916 nM; in assay [2], 116 nM; in assay [3], 8 nM; in assay [4], 1 nM; in assay [5], 0.305 nM.

Consider `CNC(=O)Nc1ccc(-c2nc(N3CC4CCC(C3)O4)c3cnn(CCF)c3n2)cc1` [Example 241, 1-{4-[1-(2-fluoroethyl)-4-(8-oxa-3-azabicyclo[3.2.1]oct-3-yl)-1H-pyrazolo[3,4-d]pyrimidin-6-yl]phenyl}-3-methylurea], for which the IC50 in assay [1] was over 10000 nM; in assay [2], 551 nM; in assay [3], 230 nM; in assay [4] it was 110 nM; in assay [5], 0.95 nM.

The IC50 is the concentration needed to halve the response being measured.
